Measured values from patent US9926324B2, “Heteroaromatic compounds as PI3 kinase modulators and methods of use” (Calitor Sciences, LLC, priority 2012, dated 2018).

Tests used:
U87MG glioblastoma cells = assay: Tumor xenograft model (U87MG), tumor growth inhibition; type: in vivo, athymic nude mice
Method: The efficacy of compounds disclosed herein was evaluated in a standard murine model of tumorigenesis. Human tumor cells (U87MG glioblastoma cells from ATCC) were expended in culture, harvested, and injected subcutaneously onto the rear flank of 6-7 week old female athymic nude mice (BALB/cA nu/nu, Hunan SLAC Laboratory Animal, Co.) (n=6-10 for vehicle group and for each dosing group). When tumors reached a volume of 100-250 mm^3, animals were randomly divided into vehicle control (for example, 5% DMSO+70% Captisol® (30%), 7% HCl (pH1), 18% Captisol® (30%); or 7% DMSO, 7% HCl (pH1), 70% Captisol® (30%), 16% Captisol® (30%), or the like) and compound groups. Subsequent administration of compound by oral gavage begins anywhere from day 0 to day 15 post tumor cell challenge and generally continues with once a day for the duration of the experiment.
Progression of tumor growth is assessed by tumor volumes and recorded as a function of time. The long (L) and short (W) axes of the subcutaneous tumors were measured with calipers twice weekly, and the tumor volume (TV) calculated as (L×W^2)/2). TGI was calculated from the difference between the median tumor volumes of vehicle-treated and drug-treated mice, expressed as a percentage of the median tumor volume of the vehicle-treated control group, by the following relation:
Initial statistical analysis is done by repeated measures analysis of variance (RMANOVA), followed by Scheffe psot hoc testing for multiple comparisons. Vehicle alone (5% DMSO+70% Captisol® (30%), 7% HCl (pH1), 18% Captisol® (30%); or 7% DMSO, 7% HCl (pH1), 70% Captisol® (30%), 16% Captisol® (30%), or the like) is the negative control.

[1] = Compound stability in rat liver microsomes; type: in vitro ADME; conditions: for Rat T1/2 / half-life at 5 μM: rat liver microsomes 0.5 mg protein/mL, compound 5 μM, NADPH 1.0 mM, 37° C.; for half-life at 5 μM / CLint scaled at 5 μM: pH 7.4; for half-life at 5 μM: read-out: Rat T1/2; for CLint scaled at 5 μM: rat liver microsomes, in vivo CLint extrapolated
Method: (§1) Human or rat liver microsomes incubations were conducted in duplicate in polypropylene tubes. The typical incubation mixtures consisted of human or rat liver microsomes (0.5 mg protein/mL), compounds of interest (5 μM) and NADPH (1.0 mM) in a total volume of 200 μL potassium phosphate buffer (PBS, 100 mM, pH=7.4). Compounds were dissolved in DMSO and diluted with PBS such that the final concentration of DMSO was 0.05%. The enzymatic reactions were commenced with the addition of […] after a 3-min preincubation and incubated in a water bath open to the air at 37° C. Reactions were terminated at various time points (0, 5, 10, 15, 30, 60 min) by adding equal volume of ice-cold acetonitrile. The samples were stored at −80° C. until LC/MS/MS assays.
(§2) The concentrations of compounds in the incubation mixtures of human or rat liver microsomes were determined by a LC/MS/MS method. The ranges of the linearity in the concentration range were determined for each tested compounds.
(§3) A parallel incubation was performed using denatured microsomes as the negative control, and reactions were terminated at various time points (0, 15, 60 min) after incubation at 37° C.
(§4) Dextromethorphan (70 μM) was selected as the positive control, and reactions were terminated at various time points (0, 5, 10, 15, 30, 60 min) after incubation at 37° C. Both positive and negative control samples were included in each assay to ensure the integrity of the microsomal incubation system.
(§5) The concentrations of compounds in human or rat liver microsome incubations were plotted as a percentage of the relevant zero time point control for each reaction. The in vivo CLint were extrapolated (ref: Naritomi Y, Terashita S, Kimura S, Suzuki A, Kagayama A, Sugiyama Y. Prediction of human hepatic clearance from in vivo animal experiments and in vitro metabolic studies with liver microsomes from animals and humans. Drug Metabolism and Disposition 2001, 29: 1316-1324).

[2] = Compound stability in human liver microsomes; type: in vitro ADME; conditions: for Human T1/2 / half-life at 5 μM: human liver microsomes 0.5 mg protein/mL, compound 5 μM, NADPH 1.0 mM, 37° C.; for half-life at 5 μM / CLint scaled at 5 μM: pH 7.4; for half-life at 5 μM: read-out: Human T1/2; for CLint scaled at 5 μM: human liver microsomes, in vivo CLint extrapolated
Method: as §1, §2, §3, §4, §5

PI3K (p110δ/p85α) (h) = molecular target: T1, PI3K (p110δ/p85α) (h) (Homo sapiens, UniProt O00329); assay: PI3K p110δ/p85α (h) non-radioactive HTRF assay; type: biochemical
T1 construct: purchased Millipore UK Ltd (assay service)
Method: (§6) PI3K (p110δ/p85α) (h) is incubated in assay buffer containing 10 μM phosphatidylinositol-4,5-bisphosphate and MgATP (concentration as required). The reaction is initiated by the addition of the MgATP mix. After incubation for 30 minutes at room temperature, the reaction is stopped by the addition of stop solution containing EDTA and biotinylated phosphatidylinositol-3,4,5-trisphosphate. Finally, detection buffer is added, which contains europium-labelled anti-GST monoclonal antibody, GST-tagged GRP1 PH domain and streptavidin-allophycocyanin. The plate is then read in timeresolved fluorescence mode and the homogenous time-resolved fluorescence (HTRF) signal is determined according to the formula HTRF=10000×(Em665 nm/Em620 nm).
(§7) The kinase assays described herein were performed at Millipore UK Ltd, Dundee Technology Park, Dundee DD2 1SW, UK.

PI3K p110β/p85α (h) = molecular target: T2, PI3K p110β/p85α (h) (Homo sapiens, UniProt P42338); assay: PI3K p110β/p85α (h) non-radioactive HTRF assay; type: biochemical
T2 construct: purchased Millipore UK Ltd (assay service)
Method: as §6, with “(p110β/p85α)” for “(p110δ/p85α)”
as §7

PI3K (p120γ) (h) = molecular target: T3, PI3K (p120γ) (h) (Homo sapiens, UniProt P48736); assay: PI3K p120γ (h) non-radioactive HTRF assay; type: biochemical
T3 construct: purchased Millipore UK Ltd (assay service)
Method: as §6, with “(p120γ)” for “(p110δ/p85α)”
as §7

T3 sequence (P48736 whole entry): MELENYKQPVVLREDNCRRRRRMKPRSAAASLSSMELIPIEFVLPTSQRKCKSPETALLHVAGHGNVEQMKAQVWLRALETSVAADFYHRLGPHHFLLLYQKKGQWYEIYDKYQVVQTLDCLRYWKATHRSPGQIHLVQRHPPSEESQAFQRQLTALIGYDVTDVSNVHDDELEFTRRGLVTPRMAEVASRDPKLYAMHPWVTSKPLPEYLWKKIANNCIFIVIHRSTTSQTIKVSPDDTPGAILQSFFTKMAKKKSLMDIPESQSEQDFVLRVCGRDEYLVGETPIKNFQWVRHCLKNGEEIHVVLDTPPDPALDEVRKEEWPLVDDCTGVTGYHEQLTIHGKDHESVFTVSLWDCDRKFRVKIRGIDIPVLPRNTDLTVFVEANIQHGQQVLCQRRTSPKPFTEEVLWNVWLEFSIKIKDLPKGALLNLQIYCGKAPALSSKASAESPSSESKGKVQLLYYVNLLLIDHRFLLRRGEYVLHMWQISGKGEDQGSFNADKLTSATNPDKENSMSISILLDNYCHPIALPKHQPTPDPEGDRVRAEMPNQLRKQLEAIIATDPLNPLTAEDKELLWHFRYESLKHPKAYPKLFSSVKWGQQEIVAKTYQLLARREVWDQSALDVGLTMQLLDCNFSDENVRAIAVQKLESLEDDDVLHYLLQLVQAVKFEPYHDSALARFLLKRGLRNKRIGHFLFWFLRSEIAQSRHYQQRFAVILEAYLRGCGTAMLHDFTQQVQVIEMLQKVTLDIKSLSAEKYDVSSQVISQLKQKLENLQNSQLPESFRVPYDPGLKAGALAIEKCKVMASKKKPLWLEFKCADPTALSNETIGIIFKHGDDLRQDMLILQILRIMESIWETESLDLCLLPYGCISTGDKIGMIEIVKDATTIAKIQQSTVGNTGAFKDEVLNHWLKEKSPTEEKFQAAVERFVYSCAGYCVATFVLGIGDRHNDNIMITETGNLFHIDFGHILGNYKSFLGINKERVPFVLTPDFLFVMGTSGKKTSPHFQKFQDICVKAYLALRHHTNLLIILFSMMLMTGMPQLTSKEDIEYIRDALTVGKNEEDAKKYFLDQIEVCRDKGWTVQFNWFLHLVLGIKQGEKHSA
T1 sequence (O00329 whole entry): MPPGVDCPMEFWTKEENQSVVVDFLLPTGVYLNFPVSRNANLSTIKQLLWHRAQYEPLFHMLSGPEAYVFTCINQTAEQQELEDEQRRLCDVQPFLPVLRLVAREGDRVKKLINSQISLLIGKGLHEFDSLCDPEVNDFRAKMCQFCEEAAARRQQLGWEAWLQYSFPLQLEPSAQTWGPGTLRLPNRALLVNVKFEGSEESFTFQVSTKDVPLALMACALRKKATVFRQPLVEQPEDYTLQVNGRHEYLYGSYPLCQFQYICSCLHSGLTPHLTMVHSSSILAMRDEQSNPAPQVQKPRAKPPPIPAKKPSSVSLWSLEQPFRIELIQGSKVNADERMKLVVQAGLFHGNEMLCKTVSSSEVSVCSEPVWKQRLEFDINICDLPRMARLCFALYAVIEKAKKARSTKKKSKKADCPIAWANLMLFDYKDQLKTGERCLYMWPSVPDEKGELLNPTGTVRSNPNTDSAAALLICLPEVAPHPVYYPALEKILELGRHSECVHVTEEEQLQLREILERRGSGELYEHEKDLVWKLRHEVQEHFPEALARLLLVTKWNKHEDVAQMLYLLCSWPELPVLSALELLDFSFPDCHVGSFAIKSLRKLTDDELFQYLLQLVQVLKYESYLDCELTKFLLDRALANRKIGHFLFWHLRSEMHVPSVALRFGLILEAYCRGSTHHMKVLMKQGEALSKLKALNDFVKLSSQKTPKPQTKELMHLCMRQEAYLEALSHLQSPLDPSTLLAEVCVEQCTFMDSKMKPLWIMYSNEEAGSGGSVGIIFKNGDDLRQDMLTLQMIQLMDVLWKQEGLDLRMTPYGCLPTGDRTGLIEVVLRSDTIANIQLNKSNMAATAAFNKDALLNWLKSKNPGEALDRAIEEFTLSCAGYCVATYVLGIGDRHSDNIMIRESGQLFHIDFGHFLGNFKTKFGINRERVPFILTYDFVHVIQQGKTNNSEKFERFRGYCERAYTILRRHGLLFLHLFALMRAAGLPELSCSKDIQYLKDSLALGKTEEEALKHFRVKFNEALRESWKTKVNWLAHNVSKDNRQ
T1 sequence (P27986 whole entry partner): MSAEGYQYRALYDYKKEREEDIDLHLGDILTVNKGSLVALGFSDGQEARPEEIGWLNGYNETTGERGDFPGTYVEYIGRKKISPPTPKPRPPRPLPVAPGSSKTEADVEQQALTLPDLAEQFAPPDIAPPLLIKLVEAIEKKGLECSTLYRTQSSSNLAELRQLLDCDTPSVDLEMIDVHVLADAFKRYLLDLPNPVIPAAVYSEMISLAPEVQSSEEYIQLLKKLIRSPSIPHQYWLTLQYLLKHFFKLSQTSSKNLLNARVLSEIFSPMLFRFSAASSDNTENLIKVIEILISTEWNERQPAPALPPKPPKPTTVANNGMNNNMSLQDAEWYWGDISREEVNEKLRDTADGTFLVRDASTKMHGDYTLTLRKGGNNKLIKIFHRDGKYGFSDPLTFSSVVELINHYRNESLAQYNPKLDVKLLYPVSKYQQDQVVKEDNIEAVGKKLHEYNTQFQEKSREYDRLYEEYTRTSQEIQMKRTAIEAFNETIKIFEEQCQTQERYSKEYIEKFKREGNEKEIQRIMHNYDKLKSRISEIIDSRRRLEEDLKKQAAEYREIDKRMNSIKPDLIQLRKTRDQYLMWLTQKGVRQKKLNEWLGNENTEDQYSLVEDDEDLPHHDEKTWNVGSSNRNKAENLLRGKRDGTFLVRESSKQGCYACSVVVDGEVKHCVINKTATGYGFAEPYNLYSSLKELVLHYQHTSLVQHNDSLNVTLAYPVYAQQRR
T2 sequence (P42338 whole entry): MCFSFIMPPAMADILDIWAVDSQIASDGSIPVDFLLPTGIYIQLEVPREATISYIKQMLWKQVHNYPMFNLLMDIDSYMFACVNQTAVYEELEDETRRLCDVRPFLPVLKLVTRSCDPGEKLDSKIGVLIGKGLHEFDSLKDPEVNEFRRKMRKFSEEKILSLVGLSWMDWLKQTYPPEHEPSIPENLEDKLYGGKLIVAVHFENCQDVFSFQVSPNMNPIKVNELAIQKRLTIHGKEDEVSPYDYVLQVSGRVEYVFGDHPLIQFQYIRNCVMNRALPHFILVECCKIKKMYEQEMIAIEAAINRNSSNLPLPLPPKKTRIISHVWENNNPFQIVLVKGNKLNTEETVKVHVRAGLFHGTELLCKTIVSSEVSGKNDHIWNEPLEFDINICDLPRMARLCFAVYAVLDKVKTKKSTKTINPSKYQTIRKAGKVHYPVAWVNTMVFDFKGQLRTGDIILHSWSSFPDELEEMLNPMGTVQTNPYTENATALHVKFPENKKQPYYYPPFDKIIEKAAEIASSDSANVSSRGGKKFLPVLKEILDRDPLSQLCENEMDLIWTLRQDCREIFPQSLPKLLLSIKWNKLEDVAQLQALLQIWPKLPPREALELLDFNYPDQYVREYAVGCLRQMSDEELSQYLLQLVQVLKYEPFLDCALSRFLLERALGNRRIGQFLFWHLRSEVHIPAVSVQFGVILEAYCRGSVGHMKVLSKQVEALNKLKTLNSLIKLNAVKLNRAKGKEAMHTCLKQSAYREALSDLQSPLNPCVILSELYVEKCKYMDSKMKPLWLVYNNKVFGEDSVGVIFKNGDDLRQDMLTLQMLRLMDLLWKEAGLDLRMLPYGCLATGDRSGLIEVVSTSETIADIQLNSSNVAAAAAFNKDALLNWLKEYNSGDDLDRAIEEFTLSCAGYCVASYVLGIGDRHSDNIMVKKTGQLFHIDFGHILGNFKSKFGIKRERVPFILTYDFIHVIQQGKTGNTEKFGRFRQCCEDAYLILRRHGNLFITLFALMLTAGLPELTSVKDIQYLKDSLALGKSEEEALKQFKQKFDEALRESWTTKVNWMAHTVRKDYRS
T2 sequence (P27986 whole entry partner): as the sequence (P27986 whole entry partner) above

SMILES	TGI % U87MG (U87MG glioblastoma cells; 1 mg/kg oral gavage, 12 days) [%]	TGI % U87MG (U87MG glioblastoma cells; 3 mg/kg oral gavage, 12 days) [%]	TGI % U87MG (U87MG glioblastoma cells; 10 mg/kg oral gavage, 12 days) [%]	Rat T1/2 [1]	Human T1/2 [2]	IC50 (PI3K (p110δ/p85α) (h)) [nM]	IC50 (PI3K p110β/p85α (h)) [nM]	half-life at 5 μM [1] [h]	CLint scaled at 5 μM [1] [L/h/kg]	half-life at 5 μM [2] [h]	CLint scaled at 5 μM [2] [L/h/kg]	IC50 (PI3K (p120γ) (h)) [nM]	TGI % U87MG (U87MG glioblastoma cells; 0.3 mg/kg oral gavage, 9 days) [%]	TGI % U87MG (U87MG glioblastoma cells; 1 mg/kg oral gavage, 9 days) [%]	TGI % U87MG (U87MG glioblastoma cells; 3 mg/kg oral gavage, 9 days) [%]
COc1ncc(-c2ccc3ncc(C#CCO)n3n2)cc1NS(=O)(=O)c1ccc(F)cc1F [Ex. 9, 2,4-difluoro-N-(5-(3-(3-hydroxyprop-1-yn-1-yl)imidazo[1,2-b]pyridazin-6-yl)-2-methoxypyridin-3-yl)benzenesulfonamide]	23	26	62	∞	∞	2	38								
COc1ncc(-c2ccc3ncc(C#CCO)n3c2)cc1NS(=O)(=O)c1ccc(F)cc1F [Ex. 15, 2,4-difluoro-N-(5-(3-(3-hydroxyprop-1-yn-1-yl)imidazo[1,2-a]pyridin-6-yl)-2-methoxypyridin-3-yl)benzenesulfonamide]		28	51			1	27	2.01	1.24	8.39	0.207	37			
COc1ncc(-c2ccc3ncc(C#CC(C)O)n3c2)cc1NS(=O)(=O)c1ccc(F)cc1F (stereo not drawn) [Ex. 16, 2,4-difluoro N (5 (3 (3 hydroxybut-1-yn-1-yl)imidazo[1,2-a]pyridin-6-yl)-2-methoxypyridin-3-yl)benzenesulfonamide]		14	43			3	66	0.894	2.78	5.22	0.333	5			
COc1ncc(-c2ccc3ncc(C#N)n3n2)cc1NS(=O)(=O)c1ccc(F)cc1F [Ex. 24, N-(5-(3-cyanoimidazo[1,2-b]pyridazin-6-yl)-2-methoxypyridin-3-yl)-2,4-difluorobenzenesulfonamide]				∞	∞	3	26					4	53	84	108
